These results are taken from patent US20100234314A1, “IDARUBICIN FOR THE TREATMENT OF LYMPHOMA IN A DOG” (priority 2007, published 2010).

In data set [1] the test system is CL-1 canine lymphoma cell line (T-cell LSA line). Briefly: In vitro anti-proliferation assay (MTS), CL-1 cell line. It is filed as cell-based. The note with it: Canis lupus familiaris; CL-1, T-cell LSA line. An excerpt: (§1) (2) Ex vivo canine lymphoma nodal tissue. […] (3) In vitro Anti-Proliferation Assay Method.
(§2) (Mean Drug Treatment OD−Mean media blank OD)×100=% Control Proliferation
(§3) (Mean Untreated OD−Mean media blank OD)

Data set [2] concerns canine lymphoma cell lines. Briefly: Anti-proliferation, canine lymphoma cell lines. It is filed as cell-based. The following applies: summary.
Source text: as §1, §2, §3

For data set [3], the system named is ex-vivo derived canine lymphoma cells (nodal tissue). Briefly: In vitro anti-proliferation assay (MTS), ex vivo canine lymphoma nodal tissue. The note with it: for Inhibition of the proliferation of canine lymphoma nodal tissues: summary; for IC50: read-out: Anti-proliferation IC50.
Source text: The study utilized an in vitro assay run with ex-vivo derived canine lymphoma cells and with established cell lines maintained over many passages using standard tissue culture techniques. Nodal tissues were obtained from canine lymphoma patients at the MSU Veterinary Clinic.
(2) Ex vivo canine lymphoma nodal tissue. Malignant lymph nodes were excised by veterinary staff at Michigan State University (MSU) Veterinary College, placed into transport media (Advanced RPMI 1640 complete medium supplemented with 10% Fetal Bovine Serum (FBS), 100 U/mL penicillin, 100 ug/mL streptomycin and 0.25 ug/mL Amphotercin B (Invitrogen/Gibco®). Nodes were processed within 24 hours of removal by mincing into tiny pieces and passing through a tissue sieve. Cell suspensions were spun at 200×g, supernatant was removed, and the cell pellet was resuspended in NH4Cl (0.15M) for 10 minutes at room temperature. The cell suspension was pelleted by centrifugation; the NH4Cl was removed and washed once with Hanks Balanced Salt Solution (HBSS), followed by re-suspension in Proliferation Medium (Advanced RPMI complete, 1% FBS, 50 nM 2-Mercaptoethanol, 100 U/mL penicillin, 100 ug/mL streptomycin and 0.25 ug/mL Amphotercin B). The cell suspension was then passed through a 100 μm nylon cell strainer (BD-Falcon) and counted using a hemacytometer. Cells were cultured in either Proliferation Medium alone, Proliferation Medium supplemented with 0.005% Pansorbin® (Heat inactivated, formalin-fixed Staphylococcus Aureus cells (SAC), Calbiochem), and 10 ng/mL canine IL-2 (R&D Systems), or Proliferation Medium supplemented with 125 ng/mL concavalin A (Sigma) and 125 ng/mL lipopolysaccamide (LPS; Calbiochem). (3) In vitro Anti-Proliferation Assay Method. Cells cultured in medium described above were plated in 96-well Costar plates (Corning) at a density of 1×10^3 cells/well (lymphoma cell lines) or 2×10^5 cells/well (lymph node cells) and exposed to various concentrations of test compounds for up to 5 days at 37° C. in a humidified incubator with 5% CO2. Effects on proliferation were determined using the CellTiter 96® Aqueous Non-Radioactive Cell Proliferation Assay (Promega) according to manufacturer's instructions. In general, proliferation was indirectly measured using a soluble tetrazolium salt (MTS) and an electron coupling agent. MTS bioreduction into a formazan product soluble in tissue culture medium was monitored by absorbance at 490 nm on a Spectramax plate reader using Softmax Pro 4.6 software (Molecular Devices). […] (4) Data Analysis: For nodal tissue, data were handled in the following manner through Prism 4.0 (Graphpad Software). Mean values from raw optical density values (OD) were calculated for the Un-stimulated, Simulated and all Drug Treatment (triplicates) and used in the following formula:
(Mean Drug Treatment OD−Mean Un-stim OD)×100=% Control Proliferation
(Mean Stim OD−Mean Un-stim OD)
Once calculated, these values for each drug concentration (or standard) were graphed and an IC50 calculated by a point to point analysis. Percent control values were not allowed to exceed 100% or fall below 0% for analysis of IC50 values.
The nature of data set [4]: Oral bioavailability in dogs, effect of feeding. It is filed as in vivo. The following applies: dog.
The subject of data set [5] is 3132 canine lymphoma cell line (B-cell LSA line). Briefly: In vitro anti-proliferation assay (MTS), 3132 cell line. It is filed as cell-based. The note with it: Canis lupus familiaris; 3132, B-cell LSA line.
Source text: as §1, §2, §3

[6] abbreviates: MSU LN 1, chemotherapy resistant B-cell LSA, stimulant SAC + IL-2.
[7] abbreviates: MSU LN 1 ID618801, chemotherapy resistant B-cell LSA, stimulant LPS + ConA.
Where [8] appears, read: MSU LN 6, chemotherapy resistant T-cell LSA, stimulant SAC + IL-2.
Setting [9] is: MSU LN 6 ID401557, chemotherapy resistant T-cell LSA, stimulant LPS + ConA.
[10] abbreviates: MSU LN 7 ID663780, chemotherapy resistant T-cell LSA, stimulant LPS + ConA.
Where [11] appears, read: MSU LN 8, de novo T-cell lymphoma, stimulant SAC + IL-2.
[12] abbreviates: MSU LN 8 ID668165, de novo T-cell lymphoma, stimulant LPS + ConA.
Where [13] appears, read: MSU LN 10 ID401979, chemotherapy resistant B-cell LSA, stimulant LPS + ConA.

Read-outs that look alike come from different tables or passages of the source.

`COc1cccc2c1C(=O)c1c(O)c3c(c(O)c1C2=O)C[C@@](O)(C(=O)CO)C[C@@H]3O[C@H]1C[C@H](N)[C@H](O)[C@H](C)O1` [Doxorubicin, doxorubicin]: the IC50 in data set [1] came out at 4.3 nM; in data set [3] (setting [6]) it was 11 nM; in data set [3] (setting [7]) it was 55 nM; in data set [3] (setting [8]), 13 nM; in data set [3] (setting [9]), 28 nM; in data set [3] (setting [10]), 10 nM. In addition, the IC50 was 7 nM in data set [3] (setting [11]), 9 nM in data set [3] (setting [12]) and over 100 nM in data set [3] (setting [13]). Further, the “Inhibition of the proliferation of canine lymphoma cell lines” value in data set [2] is “inhibited”. Moreover, the “Inhibition of the proliferation of canine lymphoma nodal tissues” value in data set [3] is recorded as “dose dependent inhibition”.

`CC(=O)[C@]1(O)Cc2c(O)c3c(c(O)c2[C@@H](O[C@H]2C[C@H](N)[C@H](O)[C@H](C)O2)C1)C(=O)c1ccccc1C3=O` [Idarubicin, idarubicin]: the IC50 was found to be 1.9 nM in data set [1]; 2.7 nM in data set [5]; 7.5 nM in data set [3] (setting [6]); 7.5 nM in data set [3] (setting [7]); 2.5 nM in data set [3] (setting [8]); 3 nM in data set [3] (setting [9]). For the same compound, the IC50 in data set [3] (setting [10]) was 2.5 nM; in data set [3] (setting [11]) it was 3 nM; in data set [3] (setting [12]), 4 nM; in data set [3] (setting [13]) it was 56 nM; in data set [3] (MSU LN 11 ID671795, de novo B-cell LSA, stimulant LPS + ConA) it was 4 nM; in data set [3] (MSU LN 14 ID403527, de novo T-cell LSA, stimulant Con A), 11 nM. Besides, in data set [4], the “Oral bioavailability, effect of feeding” value was “not adversely affected by feeding”. Moreover, the “Inhibition of the proliferation of canine lymphoma cell lines” value in data set [2] is recorded as “inhibited”. The “Potency and cytotoxicity compared with doxorubicin” value in data set [3] (all nodal and cell line lymphomas regardless of B or T-cell lineage) is “more potent and cytotoxic than doxorubicin”. In data set [3] (all nodal tissue from dogs diagnosed with chemotherapy resistant lymphomas), the “Inhibition of proliferation compared with doxorubicin” value was “more effective”. In addition, the “Inhibition of the proliferation of canine lymphoma nodal tissues” value in data set [3] is “dose dependent inhibition”.
